The term Ki denotes the equilibrium dissociation constant of an inhibitor or competing ligand from its target.

We go through 23 molecules from patent publication US12098144B2, “Piperazine indazole glucocorticoid receptor antagonists” (Corcept Therapeutics Incorporated, priority 2021, dated 2024).

This experiment addresses T1, glucocorticoid receptor (Homo sapiens, UniProt P04150).
T1 construct: endogenous in cells; ATCC cat
T1 sequence (P04150 1-777): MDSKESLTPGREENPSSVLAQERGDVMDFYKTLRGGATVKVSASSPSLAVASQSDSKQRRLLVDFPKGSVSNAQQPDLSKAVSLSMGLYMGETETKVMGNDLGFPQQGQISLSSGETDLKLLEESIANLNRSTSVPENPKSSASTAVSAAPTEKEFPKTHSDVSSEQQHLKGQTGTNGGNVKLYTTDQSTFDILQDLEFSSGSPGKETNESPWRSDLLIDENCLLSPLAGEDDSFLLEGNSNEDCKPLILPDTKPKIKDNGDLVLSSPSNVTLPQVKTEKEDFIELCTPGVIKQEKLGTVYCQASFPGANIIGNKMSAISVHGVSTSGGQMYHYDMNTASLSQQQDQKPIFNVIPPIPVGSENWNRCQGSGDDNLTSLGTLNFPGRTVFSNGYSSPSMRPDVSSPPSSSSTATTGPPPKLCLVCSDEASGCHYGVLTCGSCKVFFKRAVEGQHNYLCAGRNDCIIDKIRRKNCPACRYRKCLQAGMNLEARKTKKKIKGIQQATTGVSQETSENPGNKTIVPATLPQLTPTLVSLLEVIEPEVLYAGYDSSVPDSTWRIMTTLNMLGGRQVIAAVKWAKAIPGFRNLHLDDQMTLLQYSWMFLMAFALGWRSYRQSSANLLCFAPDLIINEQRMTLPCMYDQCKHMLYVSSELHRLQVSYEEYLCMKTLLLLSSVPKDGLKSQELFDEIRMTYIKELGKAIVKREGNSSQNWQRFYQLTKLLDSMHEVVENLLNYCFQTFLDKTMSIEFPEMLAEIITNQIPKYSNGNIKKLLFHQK
The experiment in a line: Hep G2 TAT Ki: inhibition of dexamethasone-induced TAT in HepG2 cells (96 well). The format is cell-based. As to conditions: challenge of 100 nM dexamethasone, IC50 converted to Ki by Cheng and Prusoff equation. Put shortly:
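Cells lysed 15 min at 4 °C; TAT enzyme reaction 2 h at 37 °C, stopped with KOH, 30 min further at 37 °C. Inhibition fitted to 4-parameter logistic.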
Molecule `Cc1cc2c(cnn2-c2ccc(F)cc2)cc1C1CN(S(=O)(=O)c2cnn(C)n2)CCN1CC1CC(C)(C)C1` (single isomer, unassigned) [Example 119, 5-(1-((3,3-dimethylcyclobutyl)methyl)-4-((2-methyl-2H-1,2,3-triazol-4-yl)sulfonyl)piperazin-2-yl)-1-(4-fluorophenyl)-6-methyl-1H-indazole] returned a Ki of 19 nM.
The same measure for `Cc1cc2c(cnn2-c2ccc(F)cc2)cc1C1CN(S(=O)(=O)c2cnn(C)n2)CCN1CC1CCCO1` (single isomer, unassigned) [Example 120, 1-(4-fluorophenyl)-6-methyl-5-(4-((2-methyl-2H-1,2,3-triazol-4-yl)sulfonyl)-1-((tetrahydrofuran-2-yl)methyl)piperazin-2-yl)-1H-indazole]: 65 nM.
The same measure for `Cc1cc2c(cnn2-c2ccc(F)cc2)cc1C1CN(S(=O)(=O)c2cnn(C)n2)CCN1CC1CC(=O)N(C)C1` (single isomer, unassigned) [Example 121, 4-((2-(1-(4-fluorophenyl)-6-methyl-1H-indazol-5-yl)-4-((2-methyl-2H-1,2,3-triazol-4-yl)sulfonyl)piperazin-1-yl)methyl)-1-methylpyrrolidin-2-one]: 270 nM.
Then `CC[C@H](C)N1CCN(S(=O)(=O)c2cnn(C)n2)C[C@@H]1c1cc2cnn(-c3ccc(F)cc3)c2cc1C` (single isomer, unassigned) [Example 123, 5-(1-(sec-butyl)-4-((2-methyl-2H-1,2,3-triazol-4-yl)sulfonyl)piperazin-2-yl)-1-(4-fluorophenyl)-6-methyl-1H-indazole], with 71 nM; and `Cc1ncc(S(=O)(=O)N2CCN(CC3CCC3)C(c3cc4cnn(-c5ccc(F)cc5)c4cc3C)C2)s1` (single isomer, unassigned) [Example 124, 5-((4-(cyclobutylmethyl)-3-(1-(4-fluorophenyl)-6-methyl-1H-indazol-5-yl)piperazin-1-yl)sulfonyl)-2-methylthiazole], with 14 nM; and `CC(=O)CN1CCN(S(=O)(=O)c2cnn(C)n2)CC1c1cc2cnn(-c3ccc(F)cc3)c2cc1C` (single isomer, unassigned) [Example 125, 1-(2-(1-(4-fluorophenyl)-6-methyl-1H-indazol-5-yl)-4-((2-methyl-2H-1,2,3-triazol-4-yl)sulfonyl)piperazin-1-yl)propan-2-one], with 87 nM.
In turn, `Cc1cc2c(cnn2-c2ccc(F)cc2)cc1[C@H]1CN(S(=O)(=O)c2cnn(C)n2)C[C@@H](C)N1CC(C)C` (single isomer, unassigned) [Example 126] came in with a Ki of 62 nM.
The same measure for `Cc1cc2c(cnn2-c2ccc(F)cc2)cc1C1CN(S(=O)(=O)c2cnn(C)c2)CCN1CCC(F)(F)F` (single isomer, unassigned) [Example 128, 1-(4-fluorophenyl)-6-methyl-5-(4-((1-methyl-1H-pyrazol-4-yl)sulfonyl)-1-(3,3,3-trifluoropropyl)piperazin-2-yl)-1H-indazole]: 14 nM; for `Cc1cc2c(cnn2-c2ccc(F)cc2)cc1C1CN(S(=O)(=O)c2cnn(C)c2C)CCN1CCC(F)(F)F` (single isomer, unassigned) [Example 129, 5-(4-((1,5-dimethyl-1H-pyrazol-4-yl)sulfonyl)-1-(3,3,3-trifluoropropyl)piperazin-2-yl)-1-(4-fluorophenyl)-6-methyl-1H-indazole]: 13 nM.
The same measure for `Cc1cc2c(cnn2-c2ccc(F)cc2)cc1C1CN(S(=O)(=O)c2ccc(C#N)cc2)CCN1CCC(F)(F)F` (single isomer, unassigned) [Example 130, 4-((3-(1-(4-fluorophenyl)-6-methyl-1H-indazol-5-yl)-4-(3,3,3-trifluoropropyl)piperazin-1-yl)sulfonyl)benzonitrile]: 7.7 nM.
Consider `CCn1cc(S(=O)(=O)N2CCN(CCC(F)(F)F)C(c3cc4cnn(-c5ccc(F)cc5)c4cc3C)C2)cn1` (single isomer, unassigned) [Example 131, 5-(4-((1-ethyl-1H-pyrazol-4-yl)sulfonyl)-1-(3,3,3-trifluoropropyl)piperazin-2-yl)-1-(4-fluorophenyl)-6-methyl-1H-indazole], for which affinity was put at a Ki of 13 nM.
Consider `Cc1cc2c(cnn2-c2ccc(F)cc2)cc1C1CN(S(=O)(=O)c2cccnc2)CCN1CCC(F)(F)F` (single isomer, unassigned) [Example 132, 1-(4-fluorophenyl)-6-methyl-5-(4-(pyridin-3-ylsulfonyl)-1-(3,3,3-trifluoropropyl)piperazin-2-yl)-1H-indazole], for which the Ki was determined as 13 nM.
With `Cc1ncc(S(=O)(=O)N2CCN(CCC(F)(F)F)C(c3cc4cnn(-c5ccc(F)cc5)c4cc3C)C2)s1` (single isomer, unassigned) [Example 133, 5-((3-(1-(4-fluorophenyl)-6-methyl-1H-indazol-5-yl)-4-(3,3,3-trifluoropropyl)piperazin-1-yl)sulfonyl)-2-methylthiazole], the Ki worked out at 11 nM.
Molecule `Cc1nc(S(=O)(=O)N2CCN(CCC(F)(F)F)C(c3cc4cnn(-c5ccc(F)cc5)c4cc3C)C2)cs1` (single isomer, unassigned) [Example 134, 4-((3-(1-(4-fluorophenyl)-6-methyl-1H-indazol-5-yl)-4-(3,3,3-trifluoropropyl)piperazin-1-yl)sulfonyl)-2-methylthiazole] showed a Ki of 6.5 nM.
Consider `CCn1ncc(S(=O)(=O)N2CCN(CCC(F)(F)F)C(c3cc4cnn(-c5ccc(F)cc5)c4cc3C)C2)n1` (single isomer, unassigned) [Example 135, 5-(4-((2-ethyl-2H-1,2,3-triazol-4-yl)sulfonyl)-1-(3,3,3-trifluoropropyl)piperazin-2-yl)-1-(4-fluorophenyl)-6-methyl-1H-indazole], for which the Ki amounted to 23 nM.
As for `COCCn1cc(S(=O)(=O)N2CCN(CCC(F)(F)F)C(c3cc4cnn(-c5ccc(F)cc5)c4cc3C)C2)cn1` (single isomer, unassigned) [Example 136, 1-(4-fluorophenyl)-5-(4-((1-(2-methoxyethyl)-1H-pyrazol-4-yl)sulfonyl)-1-(3,3,3-trifluoropropyl)piperazin-2-yl)-6-methyl-1H-indazole], the Ki is 57 nM.
Then `Cc1cc2c(cnn2-c2ccc(F)cc2)cc1C1CN(S(=O)(=O)CC(C)C)CCN1CCC(F)(F)F` (single isomer, unassigned) [Example 137, 1-(4-fluorophenyl)-5-(4-(isobutylsulfonyl)-1-(3,3,3-trifluoropropyl)piperazin-2-yl)-6-methyl-1H-indazole], with 33 nM; and `Cc1cc2c(cnn2-c2ccc(F)cc2)cc1C1CN(S(=O)(=O)c2cnccc2C)CCN1CCC(F)(F)F` (single isomer, unassigned) [Example 138, 1-(4-fluorophenyl)-6-methyl-5-(4-((4-methylpyridin-3-yl)sulfonyl)-1-(3,3,3-trifluoropropyl)piperazin-2-yl)-1H-indazole], with 35 nM.
`Cc1cc2c(cnn2-c2ccc(F)cc2)cc1C1CN(S(=O)(=O)c2ccccn2)CCN1CCC(F)(F)F` (single isomer, unassigned) [Example 139, 1-(4-fluorophenyl)-6-methyl-5-(4-(pyridin-2-ylsulfonyl)-1-(3,3,3-trifluoropropyl)piperazin-2-yl)-1H-indazole] gave an inhibition constant (Ki) of 37 nM.
`Cc1cc2c(cnn2-c2ccc(F)cc2)cc1C1CN(S(=O)(=O)C2CCC2)CCN1CCC(F)(F)F` (single isomer, unassigned) [Example 140, 5-(4-(cyclobutylsulfonyl)-1-(3,3,3-trifluoropropyl)piperazin-2-yl)-1-(4-fluorophenyl)-6-methyl-1H-indazole]: the affinity, expressed as Ki, was 47 nM.
Then `Cc1cc2c(cnn2-c2ccc(F)cc2)cc1C1CN(S(=O)(=O)c2cnn(C)c2)CCN1CC(C)C(F)(F)F` (single isomer, unassigned) [Example 141, 1-(4-fluorophenyl)-6-methyl-5-(4-((1-methyl-1H-pyrazol-4-yl)sulfonyl)-1-(3,3,3-trifluoro-2-methylpropyl)piperazin-2-yl)-1H-indazole], with 14 nM; and `Cc1cc2c(cnn2-c2ccc(F)cc2)cc1C1CN(S(=O)(=O)c2cnn(C)c2C)CCN1CC(C)C(F)(F)F` (single isomer, unassigned) [Example 142, 5-(4-((1,5-dimethyl-1H-pyrazol-4-yl)sulfonyl)-1-(3,3,3-trifluoro-2-methylpropyl)piperazin-2-yl)-1-(4-fluorophenyl)-6-methyl-1H-indazole], with 13 nM; and `Cc1cc2c(cnn2-c2ccc(F)cc2)cc1C1CN(S(=O)(=O)c2ccc(C#N)cc2)CCN1CC(C)C(F)(F)F` (single isomer, unassigned) [Example 143, 4-((3-(1-(4-fluorophenyl)-6-methyl-1H-indazol-5-yl)-4-(3,3,3-trifluoro-2-methylpropyl)piperazin-1-yl)sulfonyl)benzonitrile], with 25 nM.
